# Experimental data published in patent publication US7101872B2, “Farnesyl dibenzodiazepinone, and processes for its production” (Ecopia BioSciences, Inc., priority 2003, dated 2006).
# Legend:
# GL26 = experiment: Antiproliferative study, glioma cell lines (MTT); assay type: cell-based, Human; conditions: Mus musculus, GL26, Glioblastoma, 96 hrs
# Method: Cells were passaged once a week. Prior to use the cells were detached from the culture flask by treating with trypsin for five to ten minutes. The cells were counted with a Neubauer glass slide and viability assessed by 0.25% trypan blue exclusion. Only flasks with >95% cell viability, were used in the study. Cell lines amplification and plating: Cells, 5×10^3 cells per well in 100 μL drug-free medium supplemented with 10% serum, were plated in 96-well flat bottom microtiter plates and incubated at 37° C. for 48 hrs before treatment. Evaluation of inhibitory activity on cell proliferation: Cells (in triplicate wells) were incubated 96 hrs with medium containing different concentrations of ECO-04601, starting at 5.0 μg/ml (10 μM). The compound was used in a solution of 1% DMSO in D-MEM or RPMI media (or other equivalent media). […] The optical density was measured before incubation (time 0) and following 96 hrs of incubation with test compound in order to measure the growth rate of each cell line.
# At the end of the cell treatment, cell culture media was replaced with 150 μl of fresh medium containing 10 mM of 4-(2-hydroxyethyl)-1-piperazineethanesulfonic acid buffer, pH 7.4. […] The optical density was read in each well using a single wavelength spectrophotometer plate reader at 570 nm. […]
# U 373 = experiment: Antiproliferative study, glioma cell lines (MTT); assay type: cell-based; conditions: Homo sapiens, U373 MG, U 373, Astrocytoma, 96 hrs
# Method: (§1) Cells were passaged once a week. Prior to use the cells were detached from the culture flask by treating with trypsin for five to ten minutes. The cells were counted with a Neubauer glass slide and viability assessed by 0.25% trypan blue exclusion. Only flasks with >95% cell viability, were used in the study. Cell lines amplification and plating: Cells, 5×10^3 cells per well in 100 μL drug-free medium supplemented with 10% serum, were plated in 96-well flat bottom microtiter plates and incubated at 37° C. for 48 hrs before treatment. Evaluation of inhibitory activity on cell proliferation: Cells (in triplicate wells) were incubated 96 hrs with medium containing different concentrations of ECO-04601, starting at 5.0 μg/ml (10 μM). The compound was used in a solution of 1% DMSO in D-MEM or RPMI media (or other equivalent media). The concentrations of ECO-04601 were as follows: 10 μM (5.0 μg/ml), 1 μM (0.50 μg/ml), 0.5 μM (0.25 μg/ml), 0.1 μM (0.050 μg/ml), […] (0.025 μg/ml), 0.01 μM (0.0050 μg/ml), 0.001 μM (0.00050 μg/ml). Negative controls were cells treated with vehicle alone (1% DMSO in culture medium). Positive controls were cells treated with 4 to 6 increasing concentrations of cisplatin (CDDP) (data not shown). The optical density was measured before incubation (time 0) and following 96 hrs of incubation with test compound in order to measure the growth rate of each cell line.
# (§2) At the end of the cell treatment, cell culture media was replaced with 150 μl of fresh medium containing 10 mM of 4-(2-hydroxyethyl)-1-piperazineethanesulfonic acid buffer, pH 7.4. Then 50 μl of 2.5 mg/ml of 3-(4,5-dimethylthiazo-2-yl)-2,5-diphenyltetrazolium bromide in PBS pH 7.4, were added to each well and the culture plates incubated for 4 hrs at 37° C. The resulting supernatant was removed and formazan crystals were dissolved with 200 μl of DMSO followed by 25 μl of glycine buffer (0.1 M glycine plus 0.1 M NaCl, pH 10.5). The optical density was read in each well using a single wavelength spectrophotometer plate reader at 570 nm. […] Each of the cell lines was tested in at least 3 independent experiments.
# C6 = experiment: Antiproliferative study, glioma cell lines (MTT); assay type: cell-based; conditions: Rattus norvegicus, C6, Glioblastoma, 96 hrs
# Method: as §1, §2
# GHD = experiment: Antiproliferative study, glioma cell lines (MTT); assay type: cell-based; conditions: Homo sapiens, Astrocytoma, 96 hrs
# Method: as §1, §2
# 9L = experiment: Antiproliferative study, glioma cell lines (MTT); assay type: cell-based; conditions: Rattus norvegicus, Gliosarcoma, 96 hrs
# Method: as §1, §2
# DN = experiment: Antiproliferative study, glioma cell lines (MTT); assay type: cell-based; conditions: Homo sapiens, Oligodendroglioma, 96 hrs
# Method: as §1, §2
# GHA = experiment: Antiproliferative study, glioma cell lines (MTT); assay type: cell-based; conditions: Homo sapiens, Oligodendroglioma, 96 hrs
# Method: as §1, §2
# OVCAR-3 = experiment: NCI panel SRB growth inhibition; assay type: cell-based; conditions: Homo sapiens, OVCAR-3, Ovarian, 48 h
# Method: (§3) The operation of this unique screen utilizes […] different human tumor cell lines, representing leukemia, melanoma and cancers of the lung, colon, brain, ovary, breast, prostate, and kidney.
# (§4) Culture conditions and plating: The human tumor cell lines of the cancer-screening panel were grown in RPMI 1640 medium containing 5% fetal bovine serum and 2 mM L-glutamine. For a typical screening experiment, cells were inoculated into 96 well microtiter plates in 100 μL at plating densities ranging from 5,000 to 40,000 cells/well depending on the doubling time of individual cell lines (Table 5). After cell inoculation, the microtiter plates were incubated at 37° C., 5% CO2, 95% air and 100% relative humidity for 24 h prior to addition of experimental drugs. After 24 h, two plates of each cell line were fixed in situ with TCA, to represent a measurement of the cell population for each cell line at the time of drug addition (Tz). Evaluation of inhibitory activity on cell proliferation: ECO-04601 was provided as a lyophilized powder with an estimated purity of 90+%. The compound was stored at −20° C. until day of use. ECO-04601 was solubilized in dimethyl sulfoxide at 400-fold the desired final maximum test concentration. At the time of drug addition, an aliquot of frozen concentrate was thawed and diluted to twice the desired final maximum test concentration with complete medium containing 50 μg/mL gentamicin. Additional four, 10-fold or Y2 log serial dilutions were made to provide a total of five drug concentrations plus control. Aliquots of 100 μl of these different drug dilutions were added to the appropriate microtiter wells already containing 100 μl of medium, resulting in the required final drug concentrations (8.0×10^−5 M to 8.0×10^−9 M).
# (§5) Following drug addition, the plates were incubated for an additional 48 h at 37° C., 5% CO2, 95% air, and 100% relative humidity. For adherent cells, the assay was terminated by the addition of cold TCA. Cells were fixed in situ by the gentle addition of 50 μl of cold 50% (w/v) TCA (final concentration, 10% TCA) and incubated for 60 minutes at 4° C. Supernatants were discarded, and the plates were washed five times with tap water and air-dried. Sulforhodamine B (SRB) solution (100 μl) at 0.4% (w/v) in 1% acetic acid was added to each well, and plates were incubated for 10 minutes at room temperature. After staining, unbound dye was removed by washing five times with 1% acetic acid and the plates were air-dried. Bound stain was subsequently solubilized with 10 mM trizma base, and the absorbance was read on an automated plate reader at a wavelength of 515 nm. For suspension cells, the methodology was the same except that the assay was terminated by fixing settled cells at the bottom of the wells by gently adding 50 μl of 80% TCA (final concentration, 16% TCA).
# (§6) The growth inhibitory activity of ECO-04601 was measured by NCI utilizing the GI50 value, rather than the classical IC50 value.
# HOP-62 = experiment: NCI panel SRB growth inhibition; assay type: cell-based; conditions: Homo sapiens, HOP-62, Non-Small Cell Lung, 48 h
# Method: as §3, §4, §5, §6
# IGR-OV1 = experiment: NCI panel SRB growth inhibition; assay type: cell-based; conditions: Homo sapiens, IGROV-1, IGR-OV1, Ovarian, 48 h
# Method: as §3, §4, §5, §6
# SN12C = experiment: NCI panel SRB growth inhibition; assay type: cell-based; conditions: Homo sapiens, Renal, 48 h
# Method: as §3, §4, §5, §6
# RXF 393 = experiment: NCI panel SRB growth inhibition; assay type: cell-based; conditions: Homo sapiens, RXF 393, Renal, 48 h
# Method: as §3, §4, §5, §6
# HT29 = experiment: NCI panel SRB growth inhibition; assay type: cell-based; conditions: Homo sapiens, HT-29, HT29, Colon, 48 h
# Method: as §3, §4, §5, §6
compound,measurement,setting,value
"CC(C)=CCC/C(C)=C/CC/C(C)=C/CN1C(=O)c2cccc(O)c2Nc2c(O)cc(O)cc21 [ECO-04601, 10-farnesyl-4,6,8-trihydroxy-dibenzodiazepin-11-one]",IC50,GL26,8.93 ± 1.1 µM
same,IC50,U 373,3.83 ± 1.37 µM
same,IC50,C6,4.28 ± 2.82 µM
same,IC50,GHD,6.29 ± 2.98 µM
same,IC50,9L,6.82 ± 2.9 µM
same,IC50,DN,3.26 ± 0.93 µM
same,IC50,GHA,1.78 ± 0.84 µM
same,GI50,OVCAR-3,13.5 µM
same,GI50,HOP-62,8.29 µM
same,GI50,IGR-OV1,3.11 µM
same,GI50,SN12C,3.85 µM
same,GI50,RXF 393,7.71 µM
same,GI50,HT29,20.7 µM
